{
  "source": "patent US20060019270A1",
  "about": "“Global DNA methylation assessment using bisulfite PCR” (Board of Regents The University of Texas System, priority 2004, published 2006)",
  "key": {"[1]": {"system": "Alu element methylation in RKO cells", "test": "COBRA (MboI) of Alu repetitive element PCR, RKO cells treated with DAC", "format": "cell-based, human", "conditions": "5 μM DAC for three days, decrease from 26%", "procedure": "(§1) Hct116, RKO and SW48, colon cancer cell lines (American Type Culture Collection, Manassas, Va.), were cultured using standard methods. Cells were treated with 5 μM 5-aza-2′deoxycytidine (DAC) for three days prior to being harvested. DNA from cell lines and peripheral blood leukocytes was extracted using phenol-chloroform extraction methods well known to one with skill on the art.\nBisulfite modification of genomic DNA is known in the art (see Clark et. al, 1994). In brief, 1.5 μg prepared 10 mM hydroquinone (Sigma) and 520 μl of 3M Sodium Bisulfite (Sigma) at pH=5.0 were added and mixed. The samples were overlayed with mineral oil to prevent evaporation and incubated at 50° C. for 16 hours. […] Bisulfite treated DNA was stored at −20° C. until ready for use.\nMethylation analysis of Alu repetitive elements was performed initially by the COBRA assay. […] The digested PCR product was then separated by polyacrylamide gel electrophoresis or the PCR products were quantitated using a capillary electrophoresis system, an Agilent 2100 Bioanalyzer (Agilent Technologies, Palo Alto, Calif.).\nIn order to test whether Alu element […] LINE-1 methylation could approximate global methylation, COBRA, restriction digestion of the repetitive element PCR product, was used to quantitate DNA methylation in cell lines treated with 5-aza-2′deoxycytidine (DAC) (FIG. 3). […]"}, "[2]": {"system": "LINE-1 methylation in Hct116 cells", "test": "COBRA (HinfI) of LINE-1 PCR, Hct116 cells treated with DAC", "format": "cell-based, human", "conditions": "5 μM DAC for three days, 77% prior to treatment", "procedure": "as §1\n(§2) Bisulfite modification of genomic DNA is known in the art (see Clark et. al, 1994). In brief, 1.5 μg prepared 10 mM hydroquinone (Sigma) and 520 μl of 3M Sodium Bisulfite (Sigma) at pH=5.0 were added and mixed. The samples were overlayed with mineral oil to prevent evaporation and incubated at 50° C. for 16 hours. The bisulfite treated DNA was isolated using Wizard DNA Clean-Up System (Promega). The DNA was eluted by 50 μl of warm water and 5.5 μl of 3M NaOH were added for 5 minutes. The DNA was ethanol precipitated with glycogen as a carrier and resuspended in 20 μl water. Bisulfite treated DNA was stored at −20° C. until ready for use. […]\n(§3) In order to test whether Alu element […] LINE-1 methylation could approximate global methylation, COBRA, restriction digestion of the repetitive element PCR product, was used to quantitate DNA methylation in cell lines treated with 5-aza-2′deoxycytidine (DAC) (FIG. 3). […] Thus both assays reliably detected inhibition of methylation induced by DAC. […]"}, "[3]": {"system": "LINE-1 methylation in RKO cells", "test": "COBRA (HinfI) of LINE-1 PCR, RKO cells treated with DAC", "format": "cell-based, human", "conditions": "5 μM DAC for three days, decrease from 67%", "procedure": "as §1, §2, §3"}, "[4]": {"system": "LINE-1 methylation in SW48 cells", "test": "COBRA (HinfI) of LINE-1 PCR, SW48 cells treated with DAC", "format": "cell-based, human", "conditions": "5 μM DAC for three days, decrease from 59%", "procedure": "as §1, §2, §3"}, "[5]": {"system": "leukemia (AML/MDS, CML/CMML) patients", "test": "Clinical response in the High Dose and Low Dose decitabine studies", "format": "in vivo, human", "procedure": "FIG. 6 illustrates treatment schema of patient samples. Patients were treated as part of a Phase II study of Decitabine which was given initially a dose of 90 mg/m2 twice daily for 5 consecutive days. This dose was later decreased to 50 mg/m2 twice daily due to toxicity. In this “High” Dose Study a total dose of 500-900 mg/m2 of decitabine was given over a 5 day period. Peripheral blood specimens were collected on day 0 or 1 prior to treatment, days 2-4 during treatment, and on days 5 or 6 after the completion of treatment. In the second study, a Phase I strategy of “Low” Dose Decitabine was used. This study was designed to take advantage of Decitabine's demethylating properties. Escalating doses of Decitabine of 5, 10, 15 and 20 mg/m2 were given as ten daily doses over a two week period. The total dose delivered was only 50 to 200 mg/m2 over a 14 day period. Peripheral blood specimens were collected on day 0 or 1 prior to treatment, and during days 2-14 of treatment;\nPatient samples were collected from patients treated as part of two clinical studies using 5-aza-2′deoxycytidine (decitabine) as a single agent. The first study treated patients with 50-90 mg/m2 of decitabine twice daily for 5 consecutive days (See FIG. 8). The second study was a phase I study which attempted to capitalize on the demethylating properties of decitabine by using a lower dose of decitabine, 5-20 mg/m^2 once daily, for a longer period of time, 10 days over a two week period (See FIG. 8). Peripheral blood samples were collected prior to, during and after treatment. Donation of blood samples for laboratory studies was voluntary and […] were collected from 41 patients participating in both studies (See Table 4). Due to competing protocols and the availability of patients at the time of the two respective studies the majority of the patients enrolled on DM−, the “High-Dose” study were CML patients and the majority of the patients enrolled on DM−, the “Low-Dose” study were AML or High Risk MDS patients.\nDonation of peripheral blood for laboratory analysis was voluntary, and only some of the patients enrolled on the two studies participated. A total of 134 samples were collected for analysis (52 in the High Dose Study and 82 in the Low Dose Study). The majority of patients treated in the High Dose Study were CML patients, however, the majority of patients treated in the Low Dose Study were AML or High risk MDS patients."}, "[6]": {"conditions": "Total of both studies, 41 patients"}},
  "data": [
    {"compound": "Nc1ncn([C@H]2C[C@H](O)[C@@H](CO)O2)c(=O)n1", "note": "[decitabine, 5-aza-2′-deoxycytidine]", "values": [
      {"measurement": "Alu element methylation after treatment with DAC", "setting": "[1]", "value": 21, "unit": "%"},
      {"measurement": "LINE-1 methylation after treatment with DAC", "setting": "[2]", "value": 17, "unit": "%"},
      {"measurement": "LINE-1 methylation after treatment with DAC", "setting": "[3]", "value": 29, "unit": "%"},
      {"measurement": "LINE-1 methylation after treatment with DAC", "setting": "[4]", "value": 41, "unit": "%"},
      {"measurement": "Response Rate", "setting": "[5]; High Dose Study, 18 patients", "value": 39, "unit": "%"},
      {"measurement": "Treatment Response CR/PR (patients)", "setting": "[5]; High Dose Study, 18 patients", "value": 7},
      {"measurement": "Treatment Response No Response (patients)", "setting": "[5]; High Dose Study, 18 patients", "value": 11},
      {"measurement": "Response Rate", "setting": "[5]; Low Dose Study, 23 patients", "value": 35, "unit": "%"},
      {"measurement": "Treatment Response CR/PR (patients)", "setting": "[5]; Low Dose Study, 23 patients", "value": 7},
      {"measurement": "Treatment Response No Response (patients)", "setting": "[5]; Low Dose Study, 23 patients", "value": 13},
      {"measurement": "Response Rate", "setting": "[5]; [6]", "value": 34, "unit": "%"},
      {"measurement": "Treatment Response CR/PR (patients)", "setting": "[5]; [6]", "value": 14},
      {"measurement": "Treatment Response No Response (patients)", "setting": "[5]; [6]", "value": 24}
    ]}
  ]
}
